According to ChEMBL document CHEMBL1137334 (J Med Chem, 2006):
≈ marks a conversion by molar mass, not a printed value.

Assays:
[1] = target: Proto-oncogene tyrosine-protein kinase Src (Homo sapiens, UniProt P12931)
Description: Inhibition of human c-Src in NIH3T3 cells

A549 = test: Inhibition of A549 cell migration by microdroplet migration assay; assay type: functional, cell-based; conditions: Homo sapiens
[2] = target: Vascular endothelial growth factor receptor 2 (Homo sapiens, UniProt P35968); test: Inhibition of KDR
[3] = AUC (0-24h) in mouse at 20 mg/kg, po; assay type: ADME, organism-based; parameters: time < 24 hr, dose 20 mg/kg, route oral; conditions: plasma
[4] = Dissociation constant, pKa of the basic side chain of compound; assay type: physicochemical
[5] = Lipophilicity, log D at pH 7.4; assay type: physicochemical; conditions: buffer
[6] = Aqueous solubility at pH 7.4; assay type: physicochemical
[7] = Percent of unbound ligand in rat plasma; assay type: ADME, organism-based
[8] = Percent of unbound ligand in dog plasma; assay type: ADME, organism-based, Canis lupus familiaris
[9] = target: Tyrosine-protein kinase CSK (Homo sapiens, UniProt P41240); test: Inhibition of recombinant CSK by ELISA
[10] = target: Tyrosine-protein kinase Yes (Homo sapiens, UniProt P07947); test: Inhibition of recombinant C-YES by ELISA
[11] = target: Vascular endothelial growth factor receptor 1 (Homo sapiens, UniProt P17948); test: Inhibition of recombinant FLT1 by ELISA
[12] = target: Vascular endothelial growth factor receptor 3 (Homo sapiens, UniProt P35916); test: Inhibition of FLT4 by ELISA
[13] = target: Fibroblast growth factor receptor 1 (Homo sapiens, UniProt P11362); test: Inhibition of recombinant FGFR1 by ELISA
Aurora kinase B = Aurora kinase B (Homo sapiens, UniProt Q96GD4); test: Inhibition of recombinant Aurora B by ELISA
[14] = target: Cyclin-dependent kinase 2 (Homo sapiens, UniProt P24941); test: Inhibition of CDK2 by SPA
[15] = target: Glycogen synthase kinase-3 beta (Homo sapiens, UniProt P49841); test: Inhibition of GSK3-beta
[16] = Inhibition of Chk; parameters: species or system Homo sapiens
[17] = target: c-Jun N-terminal kinase, JNK (Homo sapiens, UniProt P45983+P53779+P45984); test: Inhibition of JNK; assay type: protein assay
[18] = target: 3-phosphoinositide-dependent protein kinase 1 (Homo sapiens, UniProt O15530); test: Inhibition of PDK
[19] = target: cAMP-dependent protein kinase (PKA) (Homo sapiens, UniProt P22694+P17612+P22612); test: Inhibition of PKA; assay type: protein assay
[20] = Inhibition of PI3K; parameters: species or system Homo sapiens
[21] = target: Protein kinase C alpha type (Homo sapiens, UniProt P17252); test: Inhibition of PKCalpha
[22] = Half life in rat at 20 mg/kg, po and 2 mg/kg, iv; assay type: ADME, organism-based; conditions: in vivo
[23] = (§1) Half life in male dog; assay type: ADME, organism-based, Canis lupus familiaris; conditions: male, in vivo
[24] = Volume of distribution in rat at 20 mg/kg, po and 2 mg/kg, iv; assay type: ADME, organism-based; conditions: in vivo, read-out: Vdss
[25] = (§2) Volume of distribution in male dog; assay type: ADME, organism-based, Canis lupus familiaris; conditions: male, in vivo, read-out: Vdss
[26] = Clearance in rat at 20 mg/kg, po and 2 mg/kg, iv; assay type: ADME, organism-based; conditions: in vivo
[27] = Clearance in male dog; assay type: ADME, organism-based, Canis lupus familiaris; conditions: in vivo
[28] = Bioavailability in rat at 20 mg/kg, po and 2 mg/kg, iv; assay type: ADME, organism-based; conditions: in vivo
[29] = Bioavailability in male dog; assay type: ADME, organism-based, Canis lupus familiaris; conditions: in vivo
NIH3T3 = test: Antiproliferative activity against NIH 3T3 cells xenografted in athymic rat measured as inhibition of tumor volume at 10 mg/kg/day after 18 days; assay type: functional; conditions: NIH3T3, 432 h
[30] = Permeability from apical to basolateral side of NIH 3T3 cell; assay type: ADME, cell-based, NIH3T3; conditions: mouse, not told; read-out: permeability
Canis familiaris [31] = species: Canis familiaris; test: as §1; assay type: ADME, organism-based, Canis lupus familiaris; conditions: in vivo
Canis familiaris [32] = species: Canis familiaris; test: as §2; assay type: ADME, organism-based, Canis lupus familiaris; conditions: in vivo

Sequence of Vascular endothelial growth factor receptor 2 (P35968 whole entry): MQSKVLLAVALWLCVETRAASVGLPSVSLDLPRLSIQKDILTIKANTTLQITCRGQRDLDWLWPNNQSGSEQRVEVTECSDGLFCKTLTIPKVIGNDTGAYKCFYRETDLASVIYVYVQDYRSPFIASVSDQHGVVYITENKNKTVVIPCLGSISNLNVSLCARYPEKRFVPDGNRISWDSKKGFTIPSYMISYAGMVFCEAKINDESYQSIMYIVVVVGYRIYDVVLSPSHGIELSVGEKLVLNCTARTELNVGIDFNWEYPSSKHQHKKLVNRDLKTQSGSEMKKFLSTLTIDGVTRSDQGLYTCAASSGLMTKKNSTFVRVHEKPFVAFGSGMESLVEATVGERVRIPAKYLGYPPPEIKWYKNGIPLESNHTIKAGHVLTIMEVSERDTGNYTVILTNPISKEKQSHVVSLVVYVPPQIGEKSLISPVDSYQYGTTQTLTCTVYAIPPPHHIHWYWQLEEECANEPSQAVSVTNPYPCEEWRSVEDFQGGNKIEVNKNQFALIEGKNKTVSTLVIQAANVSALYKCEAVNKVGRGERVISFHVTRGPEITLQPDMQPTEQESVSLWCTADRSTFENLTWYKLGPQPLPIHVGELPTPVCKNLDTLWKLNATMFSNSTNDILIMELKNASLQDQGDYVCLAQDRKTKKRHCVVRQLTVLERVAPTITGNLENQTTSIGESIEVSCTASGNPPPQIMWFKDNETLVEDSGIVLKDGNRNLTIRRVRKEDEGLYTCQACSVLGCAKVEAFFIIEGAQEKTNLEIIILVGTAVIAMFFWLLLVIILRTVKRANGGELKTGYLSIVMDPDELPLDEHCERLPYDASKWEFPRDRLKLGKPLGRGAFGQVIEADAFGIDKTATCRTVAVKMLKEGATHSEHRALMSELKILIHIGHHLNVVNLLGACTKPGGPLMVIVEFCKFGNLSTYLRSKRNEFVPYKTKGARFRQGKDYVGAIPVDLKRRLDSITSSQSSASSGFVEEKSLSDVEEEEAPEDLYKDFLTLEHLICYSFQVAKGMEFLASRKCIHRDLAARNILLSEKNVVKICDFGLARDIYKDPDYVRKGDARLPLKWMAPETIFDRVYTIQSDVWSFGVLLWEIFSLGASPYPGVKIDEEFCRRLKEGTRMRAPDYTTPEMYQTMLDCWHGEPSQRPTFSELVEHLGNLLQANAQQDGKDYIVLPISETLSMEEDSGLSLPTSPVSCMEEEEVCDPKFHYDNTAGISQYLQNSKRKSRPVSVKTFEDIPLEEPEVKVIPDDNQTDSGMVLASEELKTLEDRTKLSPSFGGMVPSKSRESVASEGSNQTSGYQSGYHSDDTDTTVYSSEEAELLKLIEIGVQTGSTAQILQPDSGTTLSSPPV
Sequence of Proto-oncogene tyrosine-protein kinase Src (P12931 2-536 limits assumed): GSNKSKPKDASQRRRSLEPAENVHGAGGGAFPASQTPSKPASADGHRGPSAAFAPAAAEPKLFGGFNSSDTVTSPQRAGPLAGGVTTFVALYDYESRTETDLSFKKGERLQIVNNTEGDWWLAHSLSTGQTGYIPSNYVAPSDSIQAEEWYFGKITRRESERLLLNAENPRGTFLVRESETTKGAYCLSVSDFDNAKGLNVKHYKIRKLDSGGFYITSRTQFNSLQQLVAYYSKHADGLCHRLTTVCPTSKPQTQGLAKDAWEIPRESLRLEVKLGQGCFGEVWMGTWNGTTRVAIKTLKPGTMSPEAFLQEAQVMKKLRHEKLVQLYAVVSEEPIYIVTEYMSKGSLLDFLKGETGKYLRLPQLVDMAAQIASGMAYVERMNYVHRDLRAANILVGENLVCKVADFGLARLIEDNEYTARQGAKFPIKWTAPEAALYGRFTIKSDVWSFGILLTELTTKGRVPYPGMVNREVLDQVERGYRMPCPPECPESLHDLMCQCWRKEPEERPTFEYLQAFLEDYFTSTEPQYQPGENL
Sequence of Tyrosine-protein kinase CSK (P41240 whole entry): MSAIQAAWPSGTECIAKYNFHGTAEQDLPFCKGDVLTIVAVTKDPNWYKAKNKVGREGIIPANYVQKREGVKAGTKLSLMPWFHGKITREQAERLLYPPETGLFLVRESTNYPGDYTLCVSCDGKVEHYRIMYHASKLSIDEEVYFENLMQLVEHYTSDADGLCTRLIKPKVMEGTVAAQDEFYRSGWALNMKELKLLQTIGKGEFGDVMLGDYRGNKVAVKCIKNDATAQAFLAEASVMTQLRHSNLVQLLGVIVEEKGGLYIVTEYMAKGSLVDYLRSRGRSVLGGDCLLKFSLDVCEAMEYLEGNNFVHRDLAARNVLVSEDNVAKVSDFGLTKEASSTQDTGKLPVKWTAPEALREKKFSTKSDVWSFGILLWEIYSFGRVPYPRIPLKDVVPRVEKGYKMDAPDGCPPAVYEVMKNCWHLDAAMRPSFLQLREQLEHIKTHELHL
Sequence of Fibroblast growth factor receptor 1 (P11362 whole entry): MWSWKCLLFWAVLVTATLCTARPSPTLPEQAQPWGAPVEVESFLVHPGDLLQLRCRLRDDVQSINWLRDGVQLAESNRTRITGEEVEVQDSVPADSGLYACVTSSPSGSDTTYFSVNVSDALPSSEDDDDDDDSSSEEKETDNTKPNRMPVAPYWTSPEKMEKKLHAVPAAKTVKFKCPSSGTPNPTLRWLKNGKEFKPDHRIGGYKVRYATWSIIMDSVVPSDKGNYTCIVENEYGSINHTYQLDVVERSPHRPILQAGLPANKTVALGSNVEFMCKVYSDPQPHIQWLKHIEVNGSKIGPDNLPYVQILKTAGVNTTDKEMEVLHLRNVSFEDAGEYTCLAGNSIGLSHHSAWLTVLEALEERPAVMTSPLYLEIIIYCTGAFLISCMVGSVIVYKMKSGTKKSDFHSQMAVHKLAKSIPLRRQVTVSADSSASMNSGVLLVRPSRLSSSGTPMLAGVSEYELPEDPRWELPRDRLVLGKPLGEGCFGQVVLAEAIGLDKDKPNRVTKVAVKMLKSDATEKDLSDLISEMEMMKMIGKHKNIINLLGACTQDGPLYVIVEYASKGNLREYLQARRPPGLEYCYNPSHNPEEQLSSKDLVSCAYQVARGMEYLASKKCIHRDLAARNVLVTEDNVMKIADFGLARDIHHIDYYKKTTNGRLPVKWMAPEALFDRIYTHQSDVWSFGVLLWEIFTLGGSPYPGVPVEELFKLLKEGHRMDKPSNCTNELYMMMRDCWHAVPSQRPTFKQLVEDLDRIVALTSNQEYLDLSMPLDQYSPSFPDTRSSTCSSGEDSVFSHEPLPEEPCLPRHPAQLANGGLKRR
Sequence of Aurora kinase B (Q96GD4 whole entry): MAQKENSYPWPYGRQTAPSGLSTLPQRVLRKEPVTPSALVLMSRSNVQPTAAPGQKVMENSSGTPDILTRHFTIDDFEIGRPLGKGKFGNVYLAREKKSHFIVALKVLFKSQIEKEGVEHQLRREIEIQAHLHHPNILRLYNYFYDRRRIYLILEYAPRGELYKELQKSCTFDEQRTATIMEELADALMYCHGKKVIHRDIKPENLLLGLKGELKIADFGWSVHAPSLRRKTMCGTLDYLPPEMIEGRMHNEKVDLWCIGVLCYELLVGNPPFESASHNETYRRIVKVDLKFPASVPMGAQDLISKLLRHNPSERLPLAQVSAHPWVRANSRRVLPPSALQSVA
Sequence of Glycogen synthase kinase-3 beta (P49841 whole entry): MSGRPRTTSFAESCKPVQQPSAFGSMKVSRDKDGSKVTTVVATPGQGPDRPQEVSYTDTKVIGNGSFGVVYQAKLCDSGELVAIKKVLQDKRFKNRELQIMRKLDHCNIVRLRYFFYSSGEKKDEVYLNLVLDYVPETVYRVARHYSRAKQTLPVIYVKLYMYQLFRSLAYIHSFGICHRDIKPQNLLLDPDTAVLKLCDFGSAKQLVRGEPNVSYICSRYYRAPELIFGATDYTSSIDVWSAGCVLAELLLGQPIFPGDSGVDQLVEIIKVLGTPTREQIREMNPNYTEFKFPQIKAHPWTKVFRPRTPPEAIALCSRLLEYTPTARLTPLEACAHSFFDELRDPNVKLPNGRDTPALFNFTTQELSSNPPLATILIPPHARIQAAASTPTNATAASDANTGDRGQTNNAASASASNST

COc1ccc(Cl)c(Nc2ncnc3cc(OC)c(OC)cc23)c1
IC50 [1]: 0.25 µM

COc1ccc(Cl)c(Nc2ncnc3cc(OC)cc(OC4CCN(C)CC4)c23)c1
IC50 (A549): 0.3 µM
IC50 [2]: > 2 µM
IC50 [1]: 0.03 µM

CN1CCC(Oc2cccc3ncnc(Nc4c(Cl)ccc5c4OCO5)c23)CC1
IC50 (A549): 0.7 µM
IC50 [1]: 0.1 µM

CN1CCC(COc2cccc3ncnc(Nc4c(Cl)ccc5c4OCO5)c23)CC1
IC50 [1]: 0.5 µM

c1cc(Nc2ncnc3cc(OCCN4CCCC4)cc(OC4CCOCC4)c23)c2c(c1)OCO2
IC50 [2]: 0.65 µM
IC50 [1]: 0.08 µM

c1cc(Nc2ncnc3cc(OCCN4CCCC4)cc(OC4CCOCC4)c23)c2c(c1)OCCO2
IC50 [2]: 0.05 µM
IC50 [1]: 0.085 µM

Clc1ccc2c(c1Nc1ncnc3cccc(Oc4ccncc4)c13)OCO2
IC50 (A549): 0.5 µM
IC50 [2]: > 33 µM
IC50 [1]: 0.055 µM

COc1cc(Oc2ccncc2)c2c(Nc3c(Cl)ccc4c3OCO4)ncnc2c1
IC50 (A549): 0.15 µM
AUC(0-t) at 24 h [3]: 100 ng·h/mL
IC50 [2]: 21.5 µM
IC50 [1]: 0.0095 µM

Clc1ccc2c(c1Nc1ncnc3cc(OCCCN4CCCC4)cc(OC4CCOCC4)c13)OCO2
IC50 (A549): 0.15 µM
pKa [4]: 9.5
logD [5]: 2.3
solubility [6]: 1000 µM (≈ 527 µg/mL)
fraction unbound [7]: 0.16
fraction unbound [8]: 0.17
IC50 [9]: 0.27 µM
IC50 [10]: 0.003 µM
IC50 [11]: > 33 µM
IC50 [12]: > 10 µM
IC50 [13]: 37 µM
IC50 (Aurora kinase B): 8.9 µM
IC50 [14]: > 10 µM
IC50 [15]: > 10 µM
IC50 [16]: > 10 µM
IC50 [17]: > 10 µM
IC50 [18]: > 10 µM
IC50 [19]: > 10 µM
IC50 [20]: > 10 µM
IC50 [21]: > 10 µM
AUC(0-t) at 24 h [3]: 13000 ng·h/mL
half-life [22]: 3.5 h
half-life [23]: 29 h
Vd [24]: 15 L/kg
Vd [25]: 38 L/kg
IC50 [2]: 2.5 µM
clearance [26]: 48.3 mL/min/kg
clearance [27]: 15 mL/min/kg
bioavailability [28]: 60%
bioavailability [29]: 85%
inhibition in vivo at 10 mg/kg/day (NIH3T3): 90%
Papp A→B [30]: > 1 ×10⁻⁶ cm/s
IC50 [1]: < 0.004 µM

COc1ccc(Cl)c(Nc2ncnc3cc(OCCCN4CCOCC4)cc(OC4CCOCC4)c23)c1
IC50 (A549): 0.08 µM
IC50 [1]: 0.02 µM

CN1CCC(Oc2cc(OCCF)cc3ncnc(Nc4c(Cl)ccc5c4OCO5)c23)CC1
IC50 (A549): 0.09 µM
IC50 [2]: > 20 µM
IC50 [1]: 0.004 µM

COc1ccc(Cl)c(Nc2ncnc3cc(OC)cc(OC)c23)c1
IC50 [1]: 3.7 µM

COc1ccc(Cl)c(Nc2ncnc3cc(OCCCN4CCOCC4)cc(OC4CCOC4)c23)c1 (racemic)
IC50 [2]: 0.05 µM
IC50 [1]: < 0.004 µM

COc1cc(OC2CCN(C)CC2)c2c(Nc3c(Cl)ccc4c3OCO4)ncnc2c1
IC50 (A549): 0.15 µM
pKa [4]: 8.2
logD [5]: 2.9
solubility [6]: > 1000 µM
fraction unbound [7]: 0.25
AUC(0-t) at 24 h [3]: 50 ng·h/mL
IC50 [2]: 21.5 µM
IC50 [1]: 0.01 µM

COc1ccc(Cl)c(Nc2ncnc3ccc(OC)c(OC4CCN(C)CC4)c23)c1
IC50 [1]: 0.54 µM

COc1cc2c(Nc3c(Cl)ccc4c3OCO4)ncnc2cc1OCCCN1CCCC1
AUC(0-t) at 24 h [3]: 13000 ng·h/mL
IC50 [1]: 0.005 µM

COc1ccc(Cl)c(Nc2ncnc3cccc(OC4CCN(C)CC4)c23)c1
IC50 [2]: > 5 µM
IC50 [1]: 0.3 µM

Clc1ccc2c(c1Nc1ncnc3cc(OCCN4CCCC4)cc(OC4CCOCC4)c13)OCCO2
IC50 [1]: 0.11 µM

CN1CCN(CCOc2cc(OC3CCOCC3)c3c(Nc4c(Cl)ccc5c4OCCO5)ncnc3c2)CC1
IC50 [1]: 0.065 µM

CC(C)Oc1cc(OCCCN2CCCC2)cc2ncnc(Nc3c(Cl)ccc4c3OCO4)c12
IC50 (A549): 0.15 µM
IC50 [2]: 1.2 µM
IC50 [1]: < 0.004 µM

COc1ccc(Cl)c(Nc2ncnc3cc(OCC4CCN(C)CC4)c(OC)cc23)c1 [AZM-475271]
IC50 (A549): 0.48 µM
pKa [4]: 9
logD [5]: 2
solubility [6]: 324 µM (≈ 144 µg/mL)
fraction unbound [7]: 0.075
T1/2 (Canis familiaris [31]): 4.2 h
Vdss (Canis familiaris [32]): 43 L/kg
bioavailability [29]: 42%

CC(C)Oc1cc(OC2CCN(C)CC2)c2c(Nc3c(Cl)ccc4c3OCO4)ncnc2c1
IC50 [1]: 0.1 µM

CN1CCN(CCCOc2cc(OC3CCOCC3)c3c(Nc4c(Cl)ccc5c4OCO5)ncnc3c2)CC1
IC50 (A549): 0.2 µM
IC50 [2]: 1 µM
IC50 [1]: < 0.004 µM

COc1ccc(Cl)c(Nc2ncnc3cc(OCCCN4CCOCC4)cc(OC4CCCCC4)c23)c1
IC50 (A549): 2.5 µM
IC50 [2]: 5.5 µM
IC50 [1]: 0.02 µM

c1cc(Nc2ncnc3cc(OCCCN4CCCC4)cc(OC4CCOCC4)c23)c2c(c1)OCO2
IC50 [2]: 0.1 µM
IC50 [1]: 0.04 µM

Clc1ccc2c(c1Nc1ncnc3cc(OCCN4CCCC4)cc(OC4CCOCC4)c13)OCO2
IC50 (A549): 0.3 µM
AUC(0-t) at 24 h [3]: 9000 ng·h/mL
IC50 [2]: > 10 µM
IC50 [1]: 0.006 µM

Clc1ccc2c(c1Nc1ncnc3cc(OCCN4CCCC4)cc(N4CCOCC4)c13)OCO2
IC50 (A549): 1.2 µM
IC50 [2]: 5 µM
IC50 [1]: 0.075 µM

COc1ccc(Cl)c(Nc2ncnc3cc(OCCCN4CCN(C)CC4)cc(OC4CCOCC4)c23)c1
IC50 (A549): 0.3 µM
IC50 [2]: 0.04 µM
IC50 [1]: < 0.004 µM

COc1ccc(Cl)c(Nc2ncnc3cc(OCCCN4CCOCC4)cc(OC(C)C)c23)c1
IC50 (A549): 0.4 µM

CC(C)COc1cc(OC2CCN(C)CC2)c2c(Nc3c(Cl)ccc4c3OCO4)ncnc2c1
IC50 (A549): 0.2 µM
AUC(0-t) at 24 h [3]: 600 ng·h/mL
IC50 [2]: > 10 µM
IC50 [1]: 0.007 µM

COc1ccc(Cl)c(Nc2ncnc3ccc(OCCCN4CCN(C)CC4)c(OC4CCOCC4)c23)c1
IC50 [1]: 0.6 µM

COc1ccc(Cl)c(Nc2ncnc3cc(OC)cc(OCCCN4CCOCC4)c23)c1
IC50 [1]: 0.23 µM

COc1cc2c(Nc3c(Cl)ccc4c3OCO4)ncnc2cc1OCC1CCN(C)CC1
AUC(0-t) at 24 h [3]: 38000 ng·h/mL

Clc1ccc2c(c1Nc1ncnc3cc(OCCc4ccncc4)cc(OC4CCOCC4)c13)OCO2
IC50 (A549): 0.07 µM
pKa [4]: 6.4
logD [5]: > 3.1
solubility [6]: 1.5 µM (≈ 0.781 µg/mL)
fraction unbound [7]: 0.017
AUC(0-t) at 24 h [3]: 6000 ng·h/mL
IC50 [2]: > 5 µM
IC50 [1]: 0.003 µM

CC(=O)N1CCN(CCOc2cc(OC(C)C)c3c(Nc4c(F)ccc5c4OCO5)ncnc3c2)CC1
IC50 (A549): 0.29 µM
IC50 [2]: 6.5 µM
IC50 [1]: 0.02 µM

CC(C)Oc1cc(OCCN2CCOCC2)cc2ncnc(Nc3c(Cl)ccc4c3OCO4)c12
IC50 (A549): 0.1 µM
pKa [4]: 6.5
logD [5]: 3.7
solubility [6]: 2 µM (≈ 0.974 µg/mL)
fraction unbound [7]: 0.025
IC50 [2]: 10 µM
IC50 [1]: 0.005 µM

COc1ccc(Cl)c(Nc2ncnc3cccc(OC4CCOCC4)c23)c1
IC50 [1]: 0.4 µM

COc1cc(OCCCN2CCCC2)cc2ncnc(Nc3c(Cl)ccc4c3OCO4)c12
IC50 [1]: 0.015 µM

COc1cc(OC2CCN(C)CC2)c2c(Nc3cccc4c3OCCO4)ncnc2c1
IC50 [2]: 0.5 µM
IC50 [1]: 0.57 µM

COc1cc(OC2CCN(C)CC2)c2c(Nc3cccc4c3OCO4)ncnc2c1
IC50 [2]: 2.5 µM
IC50 [1]: 0.15 µM
